Laboratory results taken from patent US20080031817A1, “Inhibition Of Superoxide Dismutase By Tetrathiomolybdate: Identification Of New Anti-Angiogenic And Antitumor Agents” (priority 2004, published 2008).
Values belong to the compound of their own block, whether it stands above or below them.

Assays:
bovine SOD1 [1] = target: T1, bovine SOD1 (Bos taurus, UniProt P00442); assay: CuZn SOD (SOD1) activity assay, xanthine/xanthine oxidase with WST-1; format: biochemical; conditions: for inhibition of SOD1 activity in vitro: in vitro enzyme assay, WST-1
T1 sequence (P00442 whole entry): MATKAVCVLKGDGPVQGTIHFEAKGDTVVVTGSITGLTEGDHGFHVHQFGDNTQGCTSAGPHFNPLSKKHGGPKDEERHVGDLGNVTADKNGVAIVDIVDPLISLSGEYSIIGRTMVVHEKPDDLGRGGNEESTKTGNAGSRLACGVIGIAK
Protocol: SOD1 was assayed with a commercially available kit (Dojindo) based on the xanthine/xanthine oxidase superoxide generation reaction coupled to a water soluble tetrazolium salt, WST-1.
Standard curves (0-13 nM) of bovine SOD were generated using the SOD1 assay described above in the presence of increasing concentrations of ATN-224. Appropriate blanks comprising ATN-224 in the absence of SOD1 enzyme were also generated. The inhibition of SOD1 activity was calculated from these standard curves.

HUVEC = HUVEC proliferation assay (acid phosphatase method); format: cell-based, human
Protocol: Alternatively, cells at a density of 6000/well are plated in wells of 48 well microplates on 0.1% gelatin in 200 μl M200/2% FCS, and incubated at 37° C. in a humid atmosphere of 5% CO2 for 16 hrs. Compounds to be tested are diluted in M200 supplemented with 2% FCS and 1 ng/ml FGF-2 and added to the cells. Positive control contain no compound, and negative controls contain no compound or FGF-2. Cells are incubated at 37° C./5% CO2 for 72 hours. Cells are enumerated indirectly using the acid phosphatase method (Connolly, D T et al., 1986, Anal. Biochem 152:136-140). After removal of growth medium, the cells are lysed in buffer containing Triton X-100. The chromogenic substrate for acid phosphatase, p-nitrophenyl phosphate is added at a concentration of 100 mM. After incubation for 75 min. at 37° C., the reaction is stopped with 1N NaOH, and color is measured using a multiwell microplate reader.
Cells at a density of 6000/well were plated in wells of 48 well microplates on 0.1% gelatin in 200 μl M200/2% FCS, and were incubated at 37° C. in a humid atmosphere of 5% CO2 for 16 hrs. Compounds to be tested were diluted in M200 supplemented with 2% FCS and 1 ng/ml FGF-2 and added to the cells. Positive control contained no compound, and negative controls contained no compound or FGF-2. Cells were incubated at 37° C./5% CO2 for 72 hours. Cells were enumerated indirectly using the acid phosphatase method. After removal of growth medium, the cells were lysed in buffer containing the detergent Triton X-100. The chromogenic substrate for acid phosphatase, p-nitrophenyl phosphate was added at a concentration of 100 mM. After incubation for 75 min. at 37° C., the reaction was stopped with 1N NaOH and color was measured using a multiwell microplate reader.
HUVEC proliferation assays were performed as described. Increasing concentrations of ATN-224 was added to cultures in the presence or absence of 100 μM MnTBAP (AG Scientific, San Diego). Cell number was estimated using the acid phosphatase method described above.

angiogenesis = assay: Matrigel plug assay (hemoglobin); format: in vivo; conditions: mice
Protocol: This assay is performed essentially as described by Passaniti et al. (Lab Invest. 67:519-528 (1992). Ice-cold Matrigel® (e.g., 500 μL) (Collaborative Biomedical Products, Inc., Bedford, Mass.) is mixed with heparin (e.g., 50 μg/ml), FGF-2 (e.g., 400 ng/ml) and the compound to be tested. In some assays, bFGF may be substituted with tumor cells as the angiogenic stimulus. The Matrigel® mixture is injected subcutaneously into 4-8 week-old athymic nude mice at sites near the abdominal midline, preferably 3 injections per mouse. The injected Matrigel® forms a palpable solid gel. Injection sites are chosen such that each animal receives a positive control plug (such as FGF-2+heparin), a negative control plug (e.g., buffer+heparin) and a plug that includes the compound being tested for its effect on angiogenesis, e.g., (FGF-2+heparin+compound). […] Hemoglobin (Hb) levels are determined using Drabkin's solution (e.g., obtained from Sigma) according to the manufacturers' instructions. […] The amount of fluorescence in the dispersed plug, determined fluorimetrically, also serves as a measure of angiogenesis in the plug. […]
Matrigel® ([…]) on ice was mixed with heparin (50 mg/ml), FGF-2 (800 ng/ml), VEGF (300 ng/ml) and the test compound. […] Hemoglobin levels in the plugs were determined using Drabkin's solution according to the manufacturers' instructions (Sigma Chemicals). […]

bovine SOD1 [2] = target: T1, bovine SOD1; assay: Removal of copper from SOD1 (gel filtration, ICP-MS); format: biochemical
Protocol: […] The protein was then purified by gel filtration chromatography. The sample was then analyzed for molybdenum content and copper content by ICP-MS.

intracellular CuZnSOD = target: T2, intracellular CuZnSOD (Homo sapiens, UniProt P00441); assay: Intracellular CuZnSOD activity in HUVECs; format: cell-based
T2 construct: Lysates were assayed for SOD1 activity as described above; endogenous in cells; host or cells: HUVEC
T2 sequence (P00441 whole entry): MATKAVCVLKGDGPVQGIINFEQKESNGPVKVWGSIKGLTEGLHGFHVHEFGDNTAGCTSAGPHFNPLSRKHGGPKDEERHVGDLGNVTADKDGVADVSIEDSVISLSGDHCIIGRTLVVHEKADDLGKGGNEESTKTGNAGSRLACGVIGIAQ
Protocol: HUVECs were plated on 0.1% gelatin at 2-4×10^6 cells in T-25 flasks in M200 medium with 2% FCS. Cells were incubated at 37° C./5% CO2 for 16 hrs. Cells were rinsed with M200/2% FCS and incubated for a further 2 hrs in medium to which varying concentration of ATN-224 and FGF-2 (at 1 ng/ml) were added. At various intervals, medium was removed and the cells lysed in lysis buffer. Lysates were assayed for SOD1 activity as described above. Lysates were also analyzed by Western blot using a SOD1-specific polyclonal antibody (Biodesign, ME). These experiments were repeated in increasing concentrations of serum.

[3] = test system: superoxide anions in HUVECs; conditions: 72 hrs, ATN-224 at IC50, 5 μM DHE, vs control HUVECs
Protocol: HUVECs were plated in 6 well cluster plates on 0.1% gelatin at 6000 cells/well in M200/2% FCS. Cells were incubated at 37° C./5% CO2 for 16 hrs. Cells were rinsed, and ATN-224 was added in medium supplemented with 1 ng/ml FGF-2. Cells were incubated at 37 ° for 72 hours, rinsed in PBS, and DHE (Molecular probes) was added (5 μM) to the cells. Cells were then visualized microscopically using a fluorescent lamp and a red filter.

SOD1 = target: T3, SOD1 (Homo sapiens, UniProt P00441); assay: SOD1 activity in treated tumors; format: in vivo; conditions: SOD1 protein unchanged (Western blot)
T3 construct: from tissue
T3 sequence (P00441 whole entry, species assumed): as the sequence (P00441 whole entry) above

[4] = Zn^2+, Fe^2+, Ca^2+, Mn^2+, Mg^2+; standard binding assays
[5] = test system: intracellular copper levels
extracellular SOD = target: T4, extracellular SOD (Homo sapiens, UniProt P08294); conditions: alcoholics, compared to untreated alcoholics and healthy control; cited from earlier work
T4 construct: DS administered to alcoholics reduced by 20% extracellular SOD activity
T4 sequence (P08294 19-240): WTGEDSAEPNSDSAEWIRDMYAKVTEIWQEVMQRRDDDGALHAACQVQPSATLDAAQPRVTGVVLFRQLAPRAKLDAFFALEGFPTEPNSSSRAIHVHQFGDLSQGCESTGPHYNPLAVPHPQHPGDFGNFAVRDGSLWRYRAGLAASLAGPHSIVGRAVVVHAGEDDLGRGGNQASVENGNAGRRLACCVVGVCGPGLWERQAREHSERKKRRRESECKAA

Compound: O=C1CC(c2cccs2)Sc2ccccc2N1 (stereo not drawn) [ATN 722]
inhibition of SOD1 activity in vitro (bovine SOD1 [1]): inhibited SOD1 activity

Compound: O=C(O)c1ccc(/C2=C3\C=CC(=N3)/C(c3ccc(C(=O)O)cc3)=c3/cc/c4[n]3[Mn]([Cl])[n]3c2ccc3/C(c2ccc(C(=O)O)cc2)=C2/C=CC(=N2)\C=4c2ccc(C(=O)O)cc2)cc1 [MnTBAP, reference compound]
reversal of ATN-224 inhibition of cell proliferation (HUVEC; 100 μM MnTBAP with ATN-224): abrogate most of the inhibition | reversal of ATN-224 inhibition of angiogenesis (angiogenesis; MnTBAP with ATN-224 in plug): abrogated most of this inhibition

Compound: CCN(CC)C(=S)SSC(=S)N(CC)CC [DS, Tetraethylthiuram disulfide]
reduction of extracellular SOD activity (extracellular SOD): 20%

Second part, led by results:

inhibition of SOD1 activity in vitro (bovine SOD1 [1]): inhibited SOD1 activity | inhibition of SOD1 activity in vitro (bovine SOD1 [1]; listed as choline tetrathiotungstate): effective inhibitor of SOD1 activity
Compound: C[N+](C)(C)CCO.C[N+](C)(C)CCO.[S]=[W](=[S])([S-])[S-] [ATN-427, choline tetrathiotungstate]

inhibition of SOD1 activity in vitro (bovine SOD1 [1]): inhibited this reaction | binding to CuZnSOD (Mo content of purified protein) (bovine SOD1 [2]): did not bind to CuZnSOD | copper content of CuZnSOD (bovine SOD1 [2]): appreciable loss of copper | inhibition of intracellular CuZnSOD (intracellular CuZnSOD; HUVECs, 3 concentrations, up to 24 hours): dose and time dependent inhibition | effect of serum on intracellular CuZnSOD inhibition (intracellular CuZnSOD; increasing concentrations of serum): unaffected by the presence of serum | SOD1 enzymatic activity in treated tumors (SOD1): reduced SOD1 enzymatic activity | binding to other metal cations [4]: does not bind detectably | inhibition of aldehyde dehydrogenase (aldehyde dehydrogenase): does not inhibit
Compound: C[N+](C)(C)CCO.C[N+](C)(C)CCO.[SH-].[SH-].[S]=[Mo]=[S] [ATN-224, choline tetrathiomolybdate]
IC50 (HUVEC; FGF-2 driven, 72 hours, read-out: IC50, inhibition of HUVEC proliferation): 1000 to 2000 nM | inhibition of FGF-2 driven proliferation with copper added (HUVEC; equimolar concentrations of copper added): completely abrogated | inhibition of generation of superoxide ions in the assay (bovine SOD1 [1]; xanthine/xanthine oxidase): did not act by inhibiting generation of superoxide ions | level of CuZnSOD protein (Western blot) (intracellular CuZnSOD; HUVEC lysates): did not affect the level of CuZnSOD protein | DHE fluorescence (superoxide) [3]: strong fluorescence | angiogenesis in Matrigel plugs (angiogenesis; compound in plug, 5 days): inhibited | intracellular copper levels [5]: does not increase intracellular copper levels | IL-8 expression (IL-8 expression): down-regulates IL-8 expression

inhibition of SOD1 activity in vitro (bovine SOD1 [1]): inhibited SOD1 activity
Compound: CN(C)C1=NCC(CSC(=N)N)S1 (stereo not drawn) [ATN-719]

inhibition of SOD1 activity in vitro (bovine SOD1 [1]): inhibited SOD1 activity
Compound: c1csc(CSc2nc3ccccc3s2)c1 [ATN-714]
